Measurements published in article PMC4595804, “A strategy to discover decoy chemokine ligands with an anti-inflammatory activity” (Scientific Reports, 2015).

Columns and labels:
CCL2 = molecular target: T1, CCL2 (Homo sapiens, UniProt P13500); test: Selectivity, neutraligand protocol, EGFP-CCR2+ HEK cells; type: cell-based; conditions: 10 μM compound, 5 nM CCL2, EGFP-CCR2+ HEK cells
T1 construct: purchased R&D systems
Description: Figure 6 (a) Selectivity of CCL17 and CCL22 neutraligands towards 10 chemokines according to the “neutraligand protocol”. […] Each column represents the mean (block) ± SD (bars) of n = 3 experiments performed in triplicate. *p < 0.05; **p < 0.01; ***p < 0.005 as compared to chemokine + DMSO. (b) Chemokine neutraligands inhibited CCR4 endocytosis induced by CCL22 or CCL17. EGFP-CCR4^+ HEK cells were incubated for 30 min with DMSO or chemokine (100 nM CCL22 or CCL17) in the presence or absence of test compounds. […] Cell surface EGFP-tagged CCR4 receptors were measured by EGFP antibody labeling and flow cytometry analysis. CCR4 internalization was expressed as a percentage of total receptor surface expression calculated using control cells incubated with DMSO (100%). […] The number of migrating cells in the presence of chemokine and compounds were expressed as the corresponding percentages. Results were analyzed by fitting the experimental curves (% of migrating cells vs log compound concentration) using the Kaleidagraph software program, and the corresponding IC50 values were calculated. […]
Dye loaded cells were placed in the FlexStation 3 (Molecular Devices). Calcium mobilization was measured at 401 and 475 nm emission fluorescence after excitation at 355 nm. […] Raw fluorescence data (at 401 and 475 nm) were exported and the ratio 401/475 was calculated. […]

mouse CCL17 = molecular target: T2, mouse CCL17 (Mus musculus, UniProt Q9WUZ6); test: Calcium responses induced by mouse CCL17, neutraligand protocol, CCR4+Gqi5+ HEK cells; type: cell-based; conditions: 5 nM mouse CCL17 preincubated 1 h with compound; read-out: IC50, inhibition of mouse CCL17-evoked calcium signaling
T2 construct: purchased R&D systems
Description: Dye loaded cells were placed in the FlexStation 3 (Molecular Devices). Calcium mobilization was measured at 401 and 475 nm emission fluorescence after excitation at 355 nm. For the primary screening, the ligands (50μl of chemokine mixed with DMSO or test compounds) were added to the cells at 40 s, followed by digitonin addition (50μl) at 100 s to the cells. Molecules were screened at a final concentration of 2μg/ml with 5 nM CCL17 or CCL22. […] Raw fluorescence data (at 401 and 475 nm) were exported and the ratio 401/475 was calculated. The calcium response values (height of peak response over baseline) were determined. Hits were selected by comparing the response amplitude at the time of the chemokine addition ± test compound. The Z’ factor[29] was calculated according to the following equation: Z’ = 1-(3SD+ + 3SD−)/|Ave+ − Ave−|, where SD+ and Ave+ are respectively the standard deviation and the mean value of the positive controls (chemokine + DMSO), while SD− and Ave− are respectively the standard deviation and the mean value of the negative controls (HEPES-BSA (0.1%) mixed with DMSO, or cells mixed with C-021). Hit molecules were confirmed by performing concentration-response curves and their half maximal inhibitory concentration (IC50) values were calculated using the Kaleidagraph software. […]
neutraligand. Human (○) or mouse (●) CCL17 (5nM) was preincubated with increasing […]

T1 sequence (P13500 24-99): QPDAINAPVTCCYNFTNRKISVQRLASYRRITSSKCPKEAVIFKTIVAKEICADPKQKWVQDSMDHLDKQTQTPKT
T2 sequence (Q9WUZ6 24-93): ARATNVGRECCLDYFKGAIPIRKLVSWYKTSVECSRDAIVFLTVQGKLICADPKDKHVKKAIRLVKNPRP

effect on calcium responses induced by CCL2 (CCL2)	SMILES	IC50 (mouse CCL17)
no effect	O=C(OCC(O)CO)c1ccccc1O (centres unmarked) [GPN136, 2,3-dihydroxypropyl 2-hydroxybenzoate]	
	CC(C)=CCn1cnc2c1c(=O)n(C)c(=O)n2C [GPN279, 1,3-dimethyl-7-(3-methylbut-2-enyl)-1H-purine-2,6(3H, 7H)-dione]	5.2 ± 0.9 µM
